Data on two compounds can be found in US12427210B2, “Compounds comprising a fibroblast activation protein ligand and use thereof” (priority 2019, dated 2025).

One experiment concerns the target V1a (h) (Homo sapiens, UniProt P37288). The experiment is described as follows: biochemical. The conditions noted are these: read-out: % Inhibition of Specific Binding.
In a further experiment the target is CCK1 (CCKA) (h) (Homo sapiens, UniProt P32238). The experiment is described as follows: biochemical. The conditions noted are these: read-out: % Inhibition of Specific Binding.
CCK1 (CCKA) (h), sequence (P32238 whole entry): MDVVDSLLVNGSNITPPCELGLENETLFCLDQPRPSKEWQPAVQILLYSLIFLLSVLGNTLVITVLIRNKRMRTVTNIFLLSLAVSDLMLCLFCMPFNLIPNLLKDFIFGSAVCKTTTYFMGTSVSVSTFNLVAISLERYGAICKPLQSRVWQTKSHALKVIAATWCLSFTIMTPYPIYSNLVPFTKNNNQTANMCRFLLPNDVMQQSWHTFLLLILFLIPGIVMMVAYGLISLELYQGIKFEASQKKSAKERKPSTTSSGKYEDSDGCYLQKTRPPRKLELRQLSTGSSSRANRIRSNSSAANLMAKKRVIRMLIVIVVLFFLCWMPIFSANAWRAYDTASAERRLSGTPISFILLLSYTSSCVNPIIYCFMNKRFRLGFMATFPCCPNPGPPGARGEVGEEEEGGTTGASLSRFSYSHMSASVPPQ
In another experiment the target is delta (DOP) (h) (Homo sapiens, UniProt P41143). As to the kind of experiment: biochemical. The conditions noted are these: read-out: % Inhibition of Specific Binding.
delta (DOP) (h), sequence (P41143 whole entry): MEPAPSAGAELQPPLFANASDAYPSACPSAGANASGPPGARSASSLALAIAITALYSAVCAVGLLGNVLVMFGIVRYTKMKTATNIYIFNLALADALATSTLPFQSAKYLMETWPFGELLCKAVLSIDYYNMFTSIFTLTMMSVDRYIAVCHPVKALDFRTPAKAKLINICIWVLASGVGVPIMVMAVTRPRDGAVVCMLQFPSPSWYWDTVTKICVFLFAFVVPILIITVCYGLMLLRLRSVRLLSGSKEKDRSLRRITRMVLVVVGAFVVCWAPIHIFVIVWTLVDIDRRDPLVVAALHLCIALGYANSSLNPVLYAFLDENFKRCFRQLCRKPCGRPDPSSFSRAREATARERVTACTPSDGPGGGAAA
The next experiment has as its target 5-HT2A (h) (Homo sapiens, UniProt P28223). As to the kind of experiment: biochemical. The conditions noted are these: read-out: % Inhibition of Specific Binding.
Experiment [1] has as its target T1, Ubiquitin carboxyl-terminal hydrolase 5 (Homo sapiens, UniProt P45974).
T1 sequence (P45974 1-858): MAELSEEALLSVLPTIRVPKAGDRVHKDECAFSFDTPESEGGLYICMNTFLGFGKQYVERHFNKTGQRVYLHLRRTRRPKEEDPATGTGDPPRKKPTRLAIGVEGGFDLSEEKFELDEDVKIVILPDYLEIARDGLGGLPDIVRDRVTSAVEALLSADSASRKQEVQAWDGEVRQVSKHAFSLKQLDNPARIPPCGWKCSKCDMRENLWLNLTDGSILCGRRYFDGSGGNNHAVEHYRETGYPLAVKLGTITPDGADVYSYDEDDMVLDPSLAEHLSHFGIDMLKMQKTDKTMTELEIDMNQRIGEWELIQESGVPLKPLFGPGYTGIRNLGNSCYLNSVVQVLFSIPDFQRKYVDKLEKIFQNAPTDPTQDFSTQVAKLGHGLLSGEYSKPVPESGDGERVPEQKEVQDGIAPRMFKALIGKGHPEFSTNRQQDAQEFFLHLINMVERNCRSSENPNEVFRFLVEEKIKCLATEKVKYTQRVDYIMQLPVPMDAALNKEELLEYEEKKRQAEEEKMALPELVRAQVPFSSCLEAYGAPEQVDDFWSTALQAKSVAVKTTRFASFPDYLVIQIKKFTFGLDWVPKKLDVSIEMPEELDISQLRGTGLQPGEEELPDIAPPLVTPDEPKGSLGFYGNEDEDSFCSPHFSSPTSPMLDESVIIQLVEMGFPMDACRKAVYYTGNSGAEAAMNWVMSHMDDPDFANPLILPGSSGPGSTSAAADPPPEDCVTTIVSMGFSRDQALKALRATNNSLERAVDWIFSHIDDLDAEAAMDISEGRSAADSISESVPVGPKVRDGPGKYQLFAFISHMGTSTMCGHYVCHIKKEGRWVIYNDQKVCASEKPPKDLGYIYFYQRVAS
As to the kind of experiment: biochemical. Particulars: read-out: Percentage inhibition (%).

In the next experiment the target is CB1 (h) (Homo sapiens, UniProt P21554). As to the kind of experiment: biochemical. The conditions noted are these: read-out: % Inhibition of Specific Binding.
CB1 (h), sequence (P21554 whole entry): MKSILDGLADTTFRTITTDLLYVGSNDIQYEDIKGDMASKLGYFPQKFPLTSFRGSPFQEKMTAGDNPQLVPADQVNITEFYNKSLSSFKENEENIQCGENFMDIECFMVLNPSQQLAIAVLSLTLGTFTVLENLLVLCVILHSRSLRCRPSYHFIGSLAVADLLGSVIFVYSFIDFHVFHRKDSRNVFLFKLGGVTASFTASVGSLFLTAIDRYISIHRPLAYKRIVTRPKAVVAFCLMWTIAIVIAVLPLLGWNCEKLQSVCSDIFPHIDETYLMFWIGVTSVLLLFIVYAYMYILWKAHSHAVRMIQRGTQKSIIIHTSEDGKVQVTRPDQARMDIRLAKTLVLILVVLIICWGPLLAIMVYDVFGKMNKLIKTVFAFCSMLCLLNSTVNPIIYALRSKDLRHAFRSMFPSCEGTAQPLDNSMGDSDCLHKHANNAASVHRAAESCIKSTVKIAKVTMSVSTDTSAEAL
The target in experiment [2] is T2, Ubiquitin carboxy-terminal hydrolase L1 (Homo sapiens, UniProt P09936).
T2 sequence (P09936 1-223): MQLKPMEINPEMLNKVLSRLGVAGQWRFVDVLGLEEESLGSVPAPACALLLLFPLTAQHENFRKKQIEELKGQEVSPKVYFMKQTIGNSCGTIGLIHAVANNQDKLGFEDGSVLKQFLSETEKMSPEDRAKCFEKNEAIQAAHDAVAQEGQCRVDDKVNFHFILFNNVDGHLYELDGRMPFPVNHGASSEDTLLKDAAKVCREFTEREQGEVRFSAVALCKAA
As to the kind of experiment: biochemical. Particulars: read-out: Percentage inhibition (%).

For experiment [3], the target named is N neuronal alpha 4beta 2 (h) (Homo sapiens, UniProt P17787+P43681). The experiment is described as follows: biochemical. Particulars: read-out: % Inhibition of Specific Binding.
The target of the next experiment is 5-HT2B (h) (Homo sapiens, UniProt P41595). As to the kind of experiment: biochemical. Particulars: read-out: % Inhibition of Specific Binding.
5-HT2B (h), sequence (P41595 whole entry): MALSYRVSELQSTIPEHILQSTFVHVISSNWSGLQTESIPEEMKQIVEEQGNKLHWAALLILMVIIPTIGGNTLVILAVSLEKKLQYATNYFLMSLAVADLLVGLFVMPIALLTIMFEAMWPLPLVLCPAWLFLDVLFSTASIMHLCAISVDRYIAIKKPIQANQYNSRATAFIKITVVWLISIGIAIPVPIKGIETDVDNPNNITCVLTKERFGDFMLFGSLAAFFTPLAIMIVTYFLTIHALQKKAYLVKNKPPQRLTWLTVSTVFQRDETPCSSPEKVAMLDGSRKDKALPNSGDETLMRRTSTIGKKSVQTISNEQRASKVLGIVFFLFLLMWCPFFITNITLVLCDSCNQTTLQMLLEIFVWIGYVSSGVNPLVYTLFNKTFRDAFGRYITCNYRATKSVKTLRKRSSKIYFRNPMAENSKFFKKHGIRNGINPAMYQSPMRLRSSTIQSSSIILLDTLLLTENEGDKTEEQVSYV
For another experiment, the target named is T3, Caspase-7 (Homo sapiens, UniProt P55210).
T3 sequence (P55210 24-198 limits assumed): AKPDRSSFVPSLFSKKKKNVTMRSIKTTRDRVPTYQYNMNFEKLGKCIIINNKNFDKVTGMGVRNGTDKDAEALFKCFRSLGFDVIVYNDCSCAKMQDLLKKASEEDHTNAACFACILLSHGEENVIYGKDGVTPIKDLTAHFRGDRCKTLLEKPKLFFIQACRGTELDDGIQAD
T3 sequence (P55210 207-303 limits assumed): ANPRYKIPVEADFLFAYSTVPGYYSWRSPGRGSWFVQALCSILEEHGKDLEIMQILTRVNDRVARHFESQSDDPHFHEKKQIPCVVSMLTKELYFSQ
The experiment is described as follows: biochemical. The conditions noted are these: read-out: Percentage inhibition (%).

A further experiment has as its target alpha 2A (h) (Homo sapiens, UniProt P08913). As to the kind of experiment: biochemical. The conditions noted are these: read-out: % Inhibition of Specific Binding.
The next experiment concerns the target FAP (Homo sapiens, UniProt Q12884). As to the kind of experiment: biochemical. The conditions noted are these: read-out: Percentage inhibition (%).
The target of another experiment is Ataxin3 (Homo sapiens, UniProt P54252). As to the kind of experiment: biochemical. The conditions noted are these: read-out: Percentage inhibition (%).
Ataxin3, sequence (P54252 whole entry, species assumed): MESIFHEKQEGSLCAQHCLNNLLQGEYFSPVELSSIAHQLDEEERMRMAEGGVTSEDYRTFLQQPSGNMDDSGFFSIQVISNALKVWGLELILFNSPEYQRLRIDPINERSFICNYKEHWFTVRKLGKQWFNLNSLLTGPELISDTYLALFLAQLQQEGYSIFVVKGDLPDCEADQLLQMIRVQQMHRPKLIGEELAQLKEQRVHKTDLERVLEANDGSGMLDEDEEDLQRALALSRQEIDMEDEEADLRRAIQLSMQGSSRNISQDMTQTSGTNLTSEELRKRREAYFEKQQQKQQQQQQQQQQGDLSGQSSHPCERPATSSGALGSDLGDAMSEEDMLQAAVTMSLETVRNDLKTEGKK
A further experiment relates to Na+ channel (site 2). As to the kind of experiment: SafetyScreen44 Na+ channel (site 2) (antagonist radioligand). It counts as binding. The conditions noted are these: 10 μM.
The target of the next experiment is PDE4D2 (h) (Homo sapiens, UniProt Q08499). The experiment is described as follows: biochemical. Particulars: read-out: % Inhibition of Specific Binding.
PDE4D2 (h), sequence (Q08499 303-809): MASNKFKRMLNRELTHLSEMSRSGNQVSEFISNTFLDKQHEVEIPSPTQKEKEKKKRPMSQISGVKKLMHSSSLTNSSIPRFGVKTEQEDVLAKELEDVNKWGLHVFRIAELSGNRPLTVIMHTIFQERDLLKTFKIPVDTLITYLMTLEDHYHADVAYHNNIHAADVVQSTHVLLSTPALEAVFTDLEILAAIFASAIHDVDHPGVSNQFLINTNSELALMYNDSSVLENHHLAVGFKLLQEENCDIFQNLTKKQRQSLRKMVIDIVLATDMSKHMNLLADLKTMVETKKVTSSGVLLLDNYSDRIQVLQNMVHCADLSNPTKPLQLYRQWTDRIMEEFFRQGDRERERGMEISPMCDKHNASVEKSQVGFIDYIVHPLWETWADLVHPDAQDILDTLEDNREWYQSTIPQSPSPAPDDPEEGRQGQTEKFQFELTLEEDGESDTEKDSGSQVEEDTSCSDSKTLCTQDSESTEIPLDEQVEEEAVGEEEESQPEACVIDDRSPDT
In another experiment the target is T4, alpha 1A (h) (Homo sapiens, UniProt P35348).
T4 sequence (P35348 1-466): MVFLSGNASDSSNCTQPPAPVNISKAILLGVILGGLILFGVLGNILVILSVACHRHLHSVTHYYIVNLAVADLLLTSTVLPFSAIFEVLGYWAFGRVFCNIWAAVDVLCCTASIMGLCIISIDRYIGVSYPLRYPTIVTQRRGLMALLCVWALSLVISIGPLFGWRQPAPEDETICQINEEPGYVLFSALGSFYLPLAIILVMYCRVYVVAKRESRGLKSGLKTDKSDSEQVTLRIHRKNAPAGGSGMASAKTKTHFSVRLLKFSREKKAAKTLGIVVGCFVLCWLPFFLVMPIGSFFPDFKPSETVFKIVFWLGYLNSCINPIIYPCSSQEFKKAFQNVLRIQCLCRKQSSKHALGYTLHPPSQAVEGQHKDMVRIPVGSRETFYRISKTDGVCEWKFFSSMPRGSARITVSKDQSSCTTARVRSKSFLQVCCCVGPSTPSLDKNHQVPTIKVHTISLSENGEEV
The experiment is described as follows: biochemical. The conditions noted are these: read-out: % Inhibition of Specific Binding.

The test system of experiment [4] is serine protease NS3 (a.a. 3-181) from Hepatitis C virus genotype 1b (mutant R155Q).

Where two headings read alike, the source gives them in different places. Numbered stars: 1 amine (or outer) side, 2 acyl side, 3 side chain; on linkers, the order of the positions; unused ones are H or OH. Bridge positions count the residues as written; N and C are the ends. Peptide text beside a SMILES is read from it. * marks the point of attachment. X1 = O=C(O)CN1CCN(CC(=O)O)CCN(CC(=O)N2CCN(Cc3cc(C[*:1])cc(C[*:2])c3)CC2)CCN(CC(=O)O)CC1; Hexanoyl = CCCCCC(=O)*

FAP, sequence (Q12884 whole entry): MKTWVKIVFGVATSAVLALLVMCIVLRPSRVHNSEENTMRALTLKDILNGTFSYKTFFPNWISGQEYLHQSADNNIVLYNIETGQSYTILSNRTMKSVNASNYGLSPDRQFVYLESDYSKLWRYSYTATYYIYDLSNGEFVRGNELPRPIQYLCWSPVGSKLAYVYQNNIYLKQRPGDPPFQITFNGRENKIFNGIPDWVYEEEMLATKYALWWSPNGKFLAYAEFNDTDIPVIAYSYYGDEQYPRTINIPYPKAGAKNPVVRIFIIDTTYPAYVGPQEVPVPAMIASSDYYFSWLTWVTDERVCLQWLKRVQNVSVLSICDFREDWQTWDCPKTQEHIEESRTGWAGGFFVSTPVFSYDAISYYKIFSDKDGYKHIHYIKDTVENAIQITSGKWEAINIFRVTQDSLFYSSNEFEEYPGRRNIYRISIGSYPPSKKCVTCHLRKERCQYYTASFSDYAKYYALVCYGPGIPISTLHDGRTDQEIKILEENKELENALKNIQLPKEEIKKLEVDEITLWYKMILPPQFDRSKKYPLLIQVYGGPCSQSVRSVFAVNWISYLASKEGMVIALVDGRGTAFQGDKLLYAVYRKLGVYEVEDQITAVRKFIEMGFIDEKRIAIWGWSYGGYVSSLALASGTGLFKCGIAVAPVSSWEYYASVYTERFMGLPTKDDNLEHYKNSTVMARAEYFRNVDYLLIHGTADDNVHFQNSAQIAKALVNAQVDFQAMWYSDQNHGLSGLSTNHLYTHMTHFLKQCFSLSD
V1a (h), sequence (P37288 whole entry): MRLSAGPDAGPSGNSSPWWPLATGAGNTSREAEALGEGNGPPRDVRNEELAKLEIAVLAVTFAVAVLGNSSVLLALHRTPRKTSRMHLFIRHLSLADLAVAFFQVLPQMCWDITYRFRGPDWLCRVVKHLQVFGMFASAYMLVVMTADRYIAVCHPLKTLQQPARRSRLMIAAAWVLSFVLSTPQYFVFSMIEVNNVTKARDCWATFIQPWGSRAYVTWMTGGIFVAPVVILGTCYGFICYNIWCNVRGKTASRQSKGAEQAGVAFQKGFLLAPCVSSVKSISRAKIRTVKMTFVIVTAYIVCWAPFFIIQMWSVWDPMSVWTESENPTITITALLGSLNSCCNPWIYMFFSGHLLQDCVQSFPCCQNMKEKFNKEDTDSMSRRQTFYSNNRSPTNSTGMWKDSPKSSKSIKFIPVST
5-HT2A (h), sequence (P28223 whole entry): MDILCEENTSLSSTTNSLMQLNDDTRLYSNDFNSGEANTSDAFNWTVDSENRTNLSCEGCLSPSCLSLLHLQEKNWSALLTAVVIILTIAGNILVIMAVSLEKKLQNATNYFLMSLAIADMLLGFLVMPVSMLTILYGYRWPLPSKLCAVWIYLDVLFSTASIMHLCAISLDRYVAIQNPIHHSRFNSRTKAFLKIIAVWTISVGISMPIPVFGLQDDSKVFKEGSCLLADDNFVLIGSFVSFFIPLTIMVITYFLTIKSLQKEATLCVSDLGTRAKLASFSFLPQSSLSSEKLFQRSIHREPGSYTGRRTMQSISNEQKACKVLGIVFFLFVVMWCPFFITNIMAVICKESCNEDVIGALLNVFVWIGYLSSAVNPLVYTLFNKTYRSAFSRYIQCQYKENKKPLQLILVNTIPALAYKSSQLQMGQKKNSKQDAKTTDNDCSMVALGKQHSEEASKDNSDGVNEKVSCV
alpha 2A (h), sequence (P08913 whole entry): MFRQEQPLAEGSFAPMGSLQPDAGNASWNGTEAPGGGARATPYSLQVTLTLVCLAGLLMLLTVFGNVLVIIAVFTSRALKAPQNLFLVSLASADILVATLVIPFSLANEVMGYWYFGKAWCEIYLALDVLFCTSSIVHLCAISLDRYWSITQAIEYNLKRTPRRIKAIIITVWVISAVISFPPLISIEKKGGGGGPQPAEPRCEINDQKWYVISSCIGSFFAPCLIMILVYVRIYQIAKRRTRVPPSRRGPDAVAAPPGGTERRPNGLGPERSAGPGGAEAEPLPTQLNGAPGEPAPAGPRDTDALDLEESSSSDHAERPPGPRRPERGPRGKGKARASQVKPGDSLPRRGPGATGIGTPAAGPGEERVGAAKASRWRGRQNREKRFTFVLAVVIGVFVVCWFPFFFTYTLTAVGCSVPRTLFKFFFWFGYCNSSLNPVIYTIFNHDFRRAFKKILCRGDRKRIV

With `CCCCCC(=O)N[C@H]1CSCc2cc(cc(CN3CCN(C(=O)CN4CCN(CC(=O)O)CCN(CC(=O)O)CCN(CC(=O)O)CC4)CC3)c2)CSC[C@@H](C(=O)N[C@@H](CC(=O)O)C(N)=O)NC(=O)[C@H](Cc2ccccc2)NC(=O)[C@H](CCC(N)=O)NC(=O)[C@H]([C@@H](C)O)NC(=O)[C@@H]2CCCN2C(=O)[C@@H]2CCCN2C1=O` [Compound 3BP-3407, Hex-[Cys(tMeBn(DOTA-PP))-Pro-Pro-Thr-Gln-Phe-Cys]-Asp-NH2] (Hexanoyl-CPPTQFCD-NH2; linker 1-7 via X1), the inhibition at 10 µM on V1a (h) is 16%; on CCK1 (CCKA) (h) it was 24%; at delta (DOP) (h), 0%; at 5-HT2A (h), -2%; in experiment [1], 46%; at CB1 (h), 5%. The inhibition at 10 µM in [2] is 4%; in experiment [3], -8%; at 5-HT2B (h), 2%; at Caspase-7, -3%; at alpha 2A (h), -9%; on FAP it was 99%. The inhibition at 10 µM is 10% at Ataxin3, -5% at PDE4D2 (h) and 2% on alpha 1A (h). In addition, the inhibition at 1 µM is 3% in [1]; -2% in experiment [2]; -3% on Caspase-7; 98% on FAP; 1% at Ataxin3. For the same compound, the “% Inhibition of Specific Binding” value with Na+ channel (site 2) is recorded as −7%. The “Percentage inhibition (%)” value stood at 0% in experiment [4] (1 μM) and 2% in experiment [4] (10 μM).

With `CCCCCC(=O)N[C@H]1CSCc2cc(CSCCNC(=O)CN3CCN(CC(=O)O)CCN(CC(=O)O)CCN(CC(=O)O)CC3)cc(c2)CSC[C@@H](C(=O)O)NC(=O)[C@H](Cc2ccccc2)NC(=O)[C@H](CCC(N)=O)NC(=O)[C@H]([C@@H](C)O)NC(=O)[C@@H]2CCCN2C(=O)[C@@H]2CCCN2C1=O` [Compound 3BP-3554, Hex-[Cys(tMeBn(DOTA-AET))-Pro-Pro-Thr-Gln-Phe-Cys]-OH], the inhibition at 10 µM at V1a (h) is 1%; at CCK1 (CCKA) (h), 16%; on delta (DOP) (h), 1%; on 5-HT2A (h) it was 4%; in experiment [1], -2%; on CB1 (h), -7%. Also, the inhibition at 10 µM in [2] is 4%; in [3], -2%; at 5-HT2B (h), 3%; on Caspase-7, -7%; on alpha 2A (h) it was 2%; on FAP, 99%. In addition, the inhibition at 10 µM at Ataxin3 is -1%; on PDE4D2 (h) it was -4%; at alpha 1A (h), -12%. Further, the inhibition at 1 µM was -4% in [1]; -4% in [2]; -1% on Caspase-7; 97% at FAP; 2% on Ataxin3. The “% Inhibition of Specific Binding” value in the experiment on Na+ channel (site 2) amounted to 14%. Besides, the “Percentage inhibition (%)” value in [4] (1 μM) is recorded as 0%; in [4] (10 μM), −5%.
